Assay results reported in patent publication US5686458A, “Quinazoline deriviates for treating peptic ulcer” (Yuhan Corporation, priority 1992, dated 1997).
Structures can show the parent of a compound that is named as a salt.

How the values were obtained:
[1] = system: gastric secretion; assay: Inhibition of Gastric Secretion, pylorus-ligated rats (Experiment 2); assay type: in vivo, Sprague-Dawley rats
Method: In accordance with the method disclosed in Shay, H., et al., Gastroenterology 5, 43-61(1945), Experiment 2 was carried out.
Sprague-Dawley rats having a body weight of 170±10 g were divided into 3 groups(n=5) and deprived of food for 24 hours before the experiment with free access to water. Under ether anesthesia, the abdomen was incised, and the pylorus was ligated. As a comparative group, Group 1 was administered intraduodenally in a volume of 0.5 ml/200 g of 30% aqueous polyethylene glycol 400 solution. Groups 2 and 3 were administered intraduodenally with the compound of Example 34 and omeprazole, respectively, each of which was suspended in 30% aqueous polyethylene glycol 400 solution at a concentration of 20 mg/kg. After closing the abdominal cavity, the rats were placed for 5 hours and then killed by cervical dislocation. The stomach was extracted to obtain gastric juice.
The gastric juice was centrifuged at 1,000 g to remove precipitates. The amount and acidity of the gastric juice were measured. Relative volumes, relative acid concentrations and relative acid outputs of the test compounds were calculated from equations(I), (II) and (III) and the results are shown in Table 2.
(I) = the average amount of gastric juice of Group 1 - the
average amount of gastric juice of Group 2)/(the average
amount of gastric juice of Group 1 - the average amount
of gastric juice of Group 3)
Relative acid concentration
(II) = (the average acidity of Group 1 - the average
acidity of Group 2)/(the average acidity of Group 1 - the average
(III) = (the total amount of acid output of Group 1 - the
total amount of acid output of Group 2)/(the total amount of acid
output of Group 1 - the total amount of acid output of Group

[2] = biological target: T1, Proton Pump (H^+ /K^+ ATPase) (Oryctolagus cuniculus, UniProt P27112); assay: Inhibition of Proton Pump (H+/K+ ATPase) Activity, in vitro enzyme reaction (Experiment 1); assay type: biochemical, New Zealand white rabbit; conditions: for Effect ratio: IC50 of Omeprazole / IC50 of test compound; for IC50: K+-stimulated H+/K+ ATPase activity, rabbit gastric microsomes, pH 7.2, 37° C., 15 min prereaction, 30 min reaction, read-out: IC50 of test compound, inhibition (50%) of the proton pump activity
T1 construct: The microsomes thus obtained were used as an enzyme source of the in vitro enzyme reaction study of proton pump; from tissue; host or cells: rabbit stomach, mucosal scrapings, microsomes (180,000 g pellet)
Method: A New Zealand white rabbit was killed by blowing its head and the stomach was taken out. The contents of the stomach were removed and the stomach walls were washed with was saline. The inner wall of the stomach was scratched out with a slide glass and the cells thus obtained were homogenized in 0.25M sucrose buffer by means of a Teflon-glass homogenizer. The homogenous solution was centrifuged at 10,000 g for 10 minutes and the supernatant was further centrifuged at 20,000 g for 20 minutes. The supernatant thus obtained was centrifuged at an ultra-high speed of 180,000 g for 1 hour. The pellets precipitated were collected by discarding the supernatant and suspended in 50 mM Tris-HCl buffer having pH 7.2. The suspension was dialyzed twice with the same buffer(of 1,000 times volume) for 3 hours and stored into liquid nitrogen.
The above centrifugation and dialysis were carried out at 4° C. The microsomes thus obtained were used as an enzyme source of the in vitro enzyme reaction study of proton pump.
The inhibitory effects of proton pump activity by the compounds of the present invention were measured by the in vitro enzyme reaction study. The proton pump activity stimulated by Mg^++ was used as a negative comparative group, and the activity stimulated by Mg^++ and K^+ was used as a positive comparative group. The comparative compound was omeprazole.
Test tubes were divided into 4 groups: Group 1 as negative comparative group(n=3), Group 2 as positive comparative group(n=3), Group 3(n=5) to be administered with the compound of the present invention and Group 4(n=5) to be administered with the comparative compound. The inhibitory effects of proton pump activity of Groups 3 and 4 were measured by employing the compound prepared in Example 34 and omeprazole, respectively, each of which was dissolved in dimethylsulfoxide at 5 different concentrations.
To each of Groups 1, 2, 3 and 4, were added 0.1 ml of magnesium chloride(40 mM) dissolved in 50 mM Tris-HCl buffer (pH 7.2) and […] of the enzyme source prepared in Experiment 1-1. Then, 0.1 ml of potassium chloride(500 mM) and 0.1 ml of ammonium chloride(100 mM) dissolved in 50 mM Tris-HCl buffer(pH 7.2) were added to all groups except for Group 1.
0.1 ml of dimethylsulfoxide was added to each of Groups 1 and 2; and to Group 3 was added 0.01 ml of the solution in which the compound prepared in Example 34 was dissolved in dimethylsulfoxide at 5 different concentrations. To Group 4, 0.01 ml of the solution prepared by dissolving omprazole in dimethylsulfoxide at 5 different concentrations(37.6, 21.4, 12.2, 7.0 and 4.0 μM) was added. 50 mM Tris-HCl buffer was added thereto so as to make the total volume 0.4 ml.
Thereafter, the test tubes of each Group were placed at 37° C. for 15 minutes for the prereaction. 0.1 ml of ATP solution(33.3 mM), which was prepared by adding Tris-ATP 50 mM to Tris-HCl buffer having pH 7.2, was added until the reaction volume became 0.5 ml. The final concentrations of MgCl2, KCl, NH4 Cl, ATP, enzyme and Tris-HCl were 8 mM, 100 mM, 20 mM, 6.7 mM, 100μg/ml and 50 mM, respectively. After the reaction was carried out at 37° C. for 30 minutes, 25% cold trichloroacetic acid was added to terminate the enzyme reaction. The released inorganic phosphate was measured by an automatic analyzer(SBA 300, Gilford).
The difference between Group 1 and Group 2 represents the proton pump activity activated by K^+ only. The inhibition percentages of Groups 3 and 4 were calculated from Litchfield-wilcoxon equation[see J. Pharmacol. Exptl. Ther. 96, 99(1949)]. The concentrations of the test compounds which inhibit 50% of the proton pump activity are represented as IC50 in Table 1.

[3] = relative to omeprazole (equation III), 20 mg/kg intraduodenally, pylorus-ligated rats, 5 hours

T1 sequence (P27112 whole entry): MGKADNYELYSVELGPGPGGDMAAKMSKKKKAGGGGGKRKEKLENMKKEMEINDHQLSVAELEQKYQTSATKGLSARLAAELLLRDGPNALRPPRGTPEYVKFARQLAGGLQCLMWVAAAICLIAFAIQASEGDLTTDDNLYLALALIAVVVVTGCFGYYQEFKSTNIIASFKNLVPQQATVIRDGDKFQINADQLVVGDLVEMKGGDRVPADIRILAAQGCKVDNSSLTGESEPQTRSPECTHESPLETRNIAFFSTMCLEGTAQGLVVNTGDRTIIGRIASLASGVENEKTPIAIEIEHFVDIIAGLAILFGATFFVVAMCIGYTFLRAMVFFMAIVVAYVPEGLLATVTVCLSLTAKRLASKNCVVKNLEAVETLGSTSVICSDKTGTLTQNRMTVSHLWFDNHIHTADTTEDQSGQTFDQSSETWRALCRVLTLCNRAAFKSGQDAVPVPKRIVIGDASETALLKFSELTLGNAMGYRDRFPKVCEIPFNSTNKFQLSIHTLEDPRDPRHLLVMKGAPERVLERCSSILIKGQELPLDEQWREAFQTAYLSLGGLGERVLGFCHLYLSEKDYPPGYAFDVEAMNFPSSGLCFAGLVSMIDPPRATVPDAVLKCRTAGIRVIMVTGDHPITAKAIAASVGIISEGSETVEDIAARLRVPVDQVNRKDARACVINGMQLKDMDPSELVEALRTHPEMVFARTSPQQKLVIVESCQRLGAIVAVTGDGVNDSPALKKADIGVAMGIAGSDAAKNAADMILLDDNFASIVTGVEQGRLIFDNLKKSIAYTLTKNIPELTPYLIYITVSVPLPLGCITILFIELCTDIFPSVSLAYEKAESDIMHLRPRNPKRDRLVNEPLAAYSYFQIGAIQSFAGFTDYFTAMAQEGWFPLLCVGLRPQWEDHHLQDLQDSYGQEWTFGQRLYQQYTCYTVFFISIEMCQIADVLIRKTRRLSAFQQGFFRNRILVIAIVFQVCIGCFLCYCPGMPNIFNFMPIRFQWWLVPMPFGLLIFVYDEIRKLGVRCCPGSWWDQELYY
T1 sequence (P18597 whole entry partner): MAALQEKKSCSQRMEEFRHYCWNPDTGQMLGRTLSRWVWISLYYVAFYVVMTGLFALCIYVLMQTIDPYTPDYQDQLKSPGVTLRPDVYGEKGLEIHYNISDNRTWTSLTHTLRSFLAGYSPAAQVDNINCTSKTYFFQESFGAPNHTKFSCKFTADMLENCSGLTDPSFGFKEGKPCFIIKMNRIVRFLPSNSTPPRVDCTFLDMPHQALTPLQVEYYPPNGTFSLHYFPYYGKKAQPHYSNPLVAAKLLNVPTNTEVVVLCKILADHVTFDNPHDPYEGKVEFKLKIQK

Row | Effect ratio [2] | IC50 [2] | SMILES | Relative Acid Output [1, 3] | Relative Acid Output ([1]; intraduodenal, 20 mg/kg, 5 h)
1 | 2.83 | 1800 nM | COc1cccc2c(N3CCc4ccccc4[C@H]3C)nc(Nc3ccc(F)cc3C)nc12.Cl [Example 35, (R)-8-Methoxy-2-(4-Fluoro-2-Methylphenylamino)-4-(1-Methyl-1,2,3,4-Tetrahydroisoquinoline-2-Yl)Quinazoline Hydrochloride] | 0.79 | 
2 | 4.42 | 2100 nM | COc1cccc2c(N3CCc4ccccc4C3C)nc(Nc3ccc(F)cc3C)nc12.O=C(O)CC(O)C(=O)O (stereo not drawn) [Example 61, 2-(4-Fluoro-2-Methylphenyl-Amino)-8-Methoxy-4-(1-Methyl-1,2,3,4-Tetrahydroisoquinoline-2-Yl)Quinazoline Malate] | 0.76 | 
3 | 1.22 | 2300 nM | COc1cccc2c(N3CCc4ccccc4C3C)nc(Nc3ccc(F)cc3)nc12.Cl (stereo not drawn) [Example 33, 8-Methoxy-2-(4-Fluorophenyl-Amino)-4-(1-Methyl-1,2,3,4-Tetrahydroisoquinoline-2-Yl) Quinazoline Hydrochloride] | 0.79 | 
4 | 3.27 | 2200 nM | COc1cccc2c(N3CCc4ccccc4C3)nc(Nc3ccc(F)cc3)nc12.Cl [Example 30, 8-Methoxy-2-(4-Fluorophenyl-Amino)-4-(1,2,3,4-Tetrahydroisoquinoline-2-Yl)Quinazoline Hydrochloride] | 0.76 | 
5 | ~ 0.60 | ~12500 nM | Cc1cc(F)ccc1Nc1nc(N2CCc3ccccc3C2C)c2cccc(OCCO)c2n1 (stereo not drawn) [Example 37, 8-(2-Hydroxyethyloxy)-2-(4-Fluoro-2-Methylphenylamino)-4-(1-Methyl-1,2,3,4-Tetrahydroisoquinoline-2-Yl)Quinazoline] | 0.37 | 
6 | 4.30 | 2000 nM | Fc1ccc(Nc2nc(N3CCc4ccccc4C3)c3ccccc3n2)cc1 [Example 23, 2-(4-Fluorophenylamino)-4-(1,2,3,4-Tetrahydroisoquinoline-2-Yl)QuinazolineHydrochloride] | 0.44 | 
7 | 0.49 | ~25000 nM | COc1cccc2c(N3CCc4ccccc4C3C3CC3)nc(Nc3ccc(F)cc3C)nc12.Cl (stereo not drawn) [Example 47, 2-(4-Fluoro-2-Methylphenyl-Amino)-8-Methoxy-4-(1-cyclopropyl-1,2,3,4-Tetrahydroisoquinoline-2-Yl)Quinazoline Hydrochloride] | 0.33 | 
8 | 11.29 | 700 nM | Cc1cc(F)ccc1Nc1nc(N2CCc3ccccc3C2)c2ccccc2n1.Cl [Example 22, 2-(4-Fluoro-2-Methylphenyl -Amino)-4-(1,2,3,4-Tetrahydroisoquinoline-2-Yl)Quinazoline Hydrochloride] | 0.64 | 
9 | < 0.97 | > 12500 nM | COc1cccc2c(N3CCc4ccccc4C3CF)nc(Nc3ccc(F)cc3)nc12.Cl (stereo not drawn) [Example 43, 2-(4-Fluorophenylamino)-8-Methoxy-4-(1-Fluoromethyl-1,2,3,4-Tetrahydroisoquinoline-2-Yl)Quinazoline Hydrochloride] | 0.76 | 
10 | 61.67 | 600 nM | Cl.c1ccc(Nc2nc(N3CCc4ccccc4C3)c3ccccc3n2)cc1 [Example 18, 2-(Phenylamino)-4-(1,2,3,4-Tetrahydroisoquinoline-2-Yl)Quinazoline Hydrochloride] | 0.29 | 
11 | > 0.58 | > 16000 nM | COc1cccc2c(N3CCc4ccccc4C3)nc(N(C)c3ccc(F)cc3)nc12.Cl [Example 32, 8-Methoxy-2-(4-Fluoro-N-Methyl-Phenylamino)-4-(1,2,3,4-Tetrahydroisoquinoline-2-Yl) Quinazoline Hydrochloride] | 0.43 | 
12 | ~ 0.25 | ~25000 nM | COc1cccc2c(N3Cc4ccccc4CC3C)nc(Nc3ccc(F)cc3)nc12.Cl (stereo not drawn) [Example 48, 2-(4-Fluorophenylamino)-8-Methoxy-4-(3-Methyl-1,2,3,4-Tetrahydroisoquinoline-2-Yl) Quinazoline Hydrochloride] | 0.76 | 
13 | ~ 0.97 | ~12500 nM | COc1cccc2c(N3CCc4ccccc4C3CF)nc(Nc3ccc(F)cc3C)nc12.Cl (stereo not drawn) [Example 44, 2-(4-Fluoro-2-Methylphenyl-Amino)-8-Methoxy-4-(1-Fluoromethyl-1,2,3,4-Tetrahydroisoquinoline-2-Yl)Quinazoline Hydrochloride] | 0.75 | 
14 | 0.46 | 8900 nM | CCC1c2ccccc2CCN1c1nc(Nc2ccc(F)cc2)nc2c(OC)cccc12.Cl (stereo not drawn) [Example 45, 8-Methoxy-2-(4-Fluorophenyl-Amino)-4-(1-Ethyl-1,2,3,4-Tetrahydroisoquinoline-2-Yl) Quinazoline Hydrochloride] |  | -0.06
15 | 1.67 | 1200 nM | CCOc1cccc2c(N3CCc4ccccc4C3C)nc(Nc3ccc(F)cc3C)nc12.Cl (stereo not drawn) [Example 38, 2-(4-Fluoro-2-Methylphenyl-Amino)-8-Ethoxy-4-(1-Methyl-1,2,3,4-Tetrahydroisoquinoline-2-Yl)Quinazoline Hydrochloride] | 0.83 | 
16 | > 0.25 | > 25000 nM | COc1cccc2c(N3Cc4ccccc4CC3C)nc(Nc3ccc(F)cc3C)nc12.Cl (stereo not drawn) [Example 49, 2-(4-Fluoro-2-Methylphenyl-Amino)-8-Methoxy-4-(3-Methyl-1,2,3,4-Tetrahydroisoquinoline-2-Yl)Quinazoline Hydrochloride] | 0.42 | 
17 | 1.83 | 5200 nM | CN(c1ccccc1)c1nc(N2CCc3ccccc3C2)c2ccccc2n1 [Example 19, 2-(N-Methylphenylamino)-4-(1,2,3,4-Tetrahydroisoquinoline-2-Yl)QuinazolineHydrochloride] | 0.68 | 
